Reference: PubChem BioAssay (NCI)
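Tested at 5 concentrations; 48 h exposure; 96-well plates; endpoints linearly interpolated, else capped at highest concentration. Abbreviation: GI50, concentration required for 50% inhibition of growth. Definition used: TGI = concentration required for complete inhibition of growth.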

Key:
Test in all cases: DTP human tumour cell line panel, 48 h
OVCAR-3 ovarian = system: OVCAR-3 ovarian
DU-145 prostate = system: DU-145 prostate
786-0 renal = system: 786-0 renal
HOP-62 NSCLC = system: HOP-62 NSCLC
SK-MEL-2 melanoma = system: SK-MEL-2 melanoma
A549 NSCLC = system: A549 NSCLC
TK-10 renal = system: TK-10 renal
HOP-92 NSCLC = system: HOP-92 NSCLC
U251 CNS = system: U251 CNS
COLO 205 colon = system: COLO 205 colon

| Compound | GI50 (OVCAR-3 ovarian) [µM] | TGI (OVCAR-3 ovarian) [µM] | GI50 (DU-145 prostate) [µM] | TGI (DU-145 prostate) [µM] | GI50 (786-0 renal) [µM] | TGI (786-0 renal) [µM] | GI50 (HOP-62 NSCLC) [µM] | TGI (HOP-62 NSCLC) [µM] | GI50 (SK-MEL-2 melanoma) [µM] | TGI (SK-MEL-2 melanoma) [µM] | GI50 (A549 NSCLC) [µM] | TGI (A549 NSCLC) [µM] | TGI (TK-10 renal) [µM] | GI50 (HOP-92 NSCLC) [µM] | TGI (HOP-92 NSCLC) [µM] | GI50 (U251 CNS) [µM] | TGI (U251 CNS) [µM] | GI50 (COLO 205 colon) [µM] | TGI (COLO 205 colon) [µM] | GI50 (TK-10 renal) [µM] |
| --- | --- | --- | --- | --- | --- | --- | --- | --- | --- | --- | --- | --- | --- | --- | --- | --- | --- | --- | --- | --- |
| COc1cc([C@@H]2c3cc4c(cc3C(Br)[C@H]3COC(=O)[C@H]23)OCO4)cc(OC)c1OC (stereo partly drawn) | 0.213 | 0.559 | 0.252 | 0.646 | 0.307 | 33.8 | 0.436 | > 100 | 0.499 | > 100 | 0.313 | > 100 | > 100 | 0.529 | > 30.1 | 0.296 | > 81.2 | 0.189 | 0.399 |  |
| Cc1cc(=O)c2cc(N=Cc3ccc([N+](=O)[O-])o3)ccc2o1 |  | > 100 |  | > 100 |  | > 100 |  | > 100 |  | > 100 |  | > 100 | > 100 |  | > 100 |  | > 100 |  | > 100 |  |
| CN(C)C(=S)NN=C(c1ccccn1)c1ccccn1 | < 0.01 | 30.5 | 0.232 | > 33.7 | < 0.0232 | 1.26 | < 0.01 | 0.0273 | 0.106 | 4.2 | 0.101 | > 42.8 | 16.5 |  | > 86.6 | < 0.01 | > 59.4 | < 0.01 | 11.8 | 0.183 |
| COC(=O)Nc1nc2ccc(Oc3ccc(NC(=O)Nc4cccc(Br)c4)cc3)cc2[nH]1 | 1.07 | 3.99 | 3.15 | > 14.6 | 3.9 | > 24.1 | 1.24 | 8.67 |  |  | 4.24 | > 13.4 | 12 | 3.33 | 12.7 | 1.78 | 5.68 | 1.48 | 7 | 4.66 |
| COc1cc2c(cc1OCCCOC1=C=C=C(c3ccc4c(c3)c3cc(-c5ccc(OCCCOc6cc7c(cc6OC)C(=O)N6CCC[C@H]6C=N7)cc5)ccc3n4S(=O)(=O)c3ccc(C)cc3)C=C1)N=C[C@@H]1CCCN1C2=O | 0.959 | 2.23 | 1.13 | 2.73 | 1.38 | 4.12 | 1.99 | 8.6 |  |  | 6.7 | 20.5 | 5.05 | 0.79 | 3.37 | 0.966 | 2.87 | 1.9 | 9.78 | 1.27 |
| C[C@]12CC/C(=N\N)C[C@@H]1CC[C@@H]1[C@@H]2CC[C@]2(C)/C(=N/N)CC[C@@H]12 | > 100 | > 100 | > 100 | > 100 | > 100 | > 100 | > 100 | > 100 | > 100 | > 100 | > 100 | > 100 | > 100 | > 100 | > 100 | > 100 | > 100 |  |  | > 100 |
| N#Cc1c2ccccc2c2n1-c1ccccc1OC(c1ccccc1)C2=O (stereo not drawn) | 5.1 | 49.7 | 6.1 | 26.3 | 4.91 | 23 | 3.84 | 15.8 |  |  | 3.11 | 29.3 | 20.7 | 2.01 | 5.88 | 3.17 | 15.7 | 4.67 | 16.4 | 4.9 |
| CCN(CC)c1ccc(N=C2C=C(C(=O)Nc3ccc(S(C)(=O)=O)cc3)C(=O)c3ccccc32)c(C)c1 | 3.78 | > 100 | > 100 | > 100 | > 100 | > 100 | 91.7 | > 100 |  |  | 49.6 | > 100 | > 100 | > 100 | > 100 | 4.69 | > 100 | 32.7 | > 100 | > 100 |
| COc1ccc(Nc2ncccc2/C=C/C(=O)c2cc(OC)c(OC)c(OC)c2)cc1 | 1.64 | 2.99 | 1.59 | 2.93 | 1.69 | 3.22 | 1.78 | 3.75 | 1.47 | 2.99 |  |  |  | 1.59 | 4.28 | 1.27 | 2.52 | 1.69 | 3.06 |  |
| CC1=C(SCc2ccccc2)C(=O)c2ccccc2C1=O |  | 23.1 |  | 34.9 |  | 30.9 |  | 33.5 |  | 40.1 |  |  | 36.9 |  | 19 |  | 33.5 |  | 38.9 |  |
